In patent US9758527B2, “Cyclohexene derivative, preparation method therefor, and pharmaceutical composition for preventing or treating metabolic diseases, containing same as active ingredient” (HYUNDAI PHARM CO., LTD., priority 2014, dated 2017) one finds EC50 data, which are given here for 25 molecules.

Where two headings read alike, the source gives them in different places. Bounds are passed on as bounds.

The target of this test is T1, G protein-coupled receptor 119 (GPR-119) (Mesocricetus auratus, UniProt A0A1U8CD06).
T1 construct: hamster-derived β-cells containing G protein-coupled receptor 119 (GPR-119), HIT-T15 cells; host or cells: HIT-T15 (hamster pancreatic β-cells)
T1 sequence (A0A1U8CD06 1-334): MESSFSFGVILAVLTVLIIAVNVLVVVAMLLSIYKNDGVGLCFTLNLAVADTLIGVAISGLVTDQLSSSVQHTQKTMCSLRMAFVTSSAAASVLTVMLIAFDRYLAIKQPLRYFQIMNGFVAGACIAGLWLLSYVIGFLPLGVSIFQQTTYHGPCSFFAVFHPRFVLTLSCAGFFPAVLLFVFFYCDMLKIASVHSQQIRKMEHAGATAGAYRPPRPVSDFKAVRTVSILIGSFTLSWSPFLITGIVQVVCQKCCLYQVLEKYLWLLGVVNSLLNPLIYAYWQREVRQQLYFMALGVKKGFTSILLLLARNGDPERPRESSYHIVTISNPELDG
Briefly: Evaluation of cAMP activity in HIT-T15 cells (HTRF cAMP dynamic kit). The format is cell-based, hamster. Conditions: cAMP activation. The method, boiled down:
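HIT-T15 cells, 60,000/well, treated next day with compound at six concentrations ([…]) for 1 h at 37° C. Lysate cAMP quantified by HTRF competitive immunoassay (D2-cAMP, cryptate anti-cAMP); activity taken as change in FRET signal relative to DMSO.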
Background: Time-resolved FRET reads energy transfer from a long-lived donor to a nearby acceptor.

Where [1] appears, read: 1 h at 37° C., six concentrations, read-out: EC50.

The term EC50 denotes the concentration that produces a half-maximal response. For the molecule `CCc1cnc(N2CCC(COc3ccc(C4=CCC(C(=O)N5CCC(CCO)CC5)CC4)cc3)CC2)nc1` (centres unmarked) [Example 173, (4-(4-((1-(5-ethylpyrimidin-2-yl)piperidin-4-yl)methoxy)phenyl)cyclohex-3-enyl)(4-(2-hydroxyethyl)piperidin-1-yl)methanone], the EC50 under setting [1] was determined as 18 nM.
Turning to `CCc1cnc(N2CCC(COc3ccc(C4=CCC(C(=O)N(CC)CCO)CC4)cc3)CC2)nc1` (centres unmarked) [Example 175, N-ethyl-4-(4-((1-(5-ethylpyrimidin-2-yl)piperidin-4-yl)methoxy)phenyl)-N-(2-hydroxyethyl)cyclohex-3-enecarboxamide], the EC50 reads like this: under setting [1], 7 nM; (read-out: EC50 value) ≤ 50 nM.
As to `CCc1cnc(N2CCC(COc3ccc(C4=CCC(C(=O)NCC(C)(C)CO)CC4)cc3)CC2)nc1` (centres unmarked) [Example 177, 4-(4-((1-(5-ethylpyrimidin-2-yl)piperidin-4-yl)methoxy)phenyl)-N-(3-hydroxy-2,2-dimethylpropyl)cyclohex-3-enecarboxamide], the 50% effective concentration (EC50) under setting [1] came out at 38 nM.
As for `CCc1cnc(N2CCC(COc3ccc(C4=CCC(C(=O)N(CCO)CCO)CC4)cc3)CC2)nc1` (centres unmarked) [Example 181, 4-(4-((1-(5-ethylpyrimidin-2-yl)piperidin-4-yl)methoxy)phenyl)-N,N-bis(2-hydroxyethyl)cyclohex-3-enecarboxamide], the EC50 runs as follows: under setting [1], 24 nM; (read-out: EC50 value) ≤ 50 nM.
The like results for `CC(C)c1noc(N2CCC(COc3ccc(C4=CCC(C(=O)N5CCC(O)CC5)CC4)cc3)CC2)n1` (centres unmarked) [Example 182, (4-hydroxypiperidin-1-yl)(4-(4-((1-(3-isopropyl-1,2,4-oxadiazol-5-yl)piperidin-4-yl)methoxy)phenyl)cyclohex-3-enyl)methanone] were, in that order, 27 nM and ≤ 50 nM.
The like results for `CC(C)c1noc(N2CCC(COc3ccc(C4=CCC(C(=O)N5CCC(CO)CC5)CC4)cc3)CC2)n1` (centres unmarked) [Example 183, (4-(hydroxymethyl)piperidin-1-yl)(4-(4-((1-(3-isopropyl-1,2,4-oxadiazol-5-yl)piperidin-4-yl)methoxy)phenyl)cyclohex-3-enyl)methanone] were, in that order, 12 nM and ≤ 50 nM.
With `CC(C)c1noc(N2CCC(COc3ccc(C4=CCC(C(=O)N5CCC(CCO)CC5)CC4)cc3)CC2)n1` (centres unmarked) [Example 186, (4-(2-hydroxyethyl)piperidin-1-yl)(4-(4-((1-(3-isopropyl-1,2,4-oxadiazol-5-yl)piperidin-4-yl)methoxy)phenyl)cyclohex-3-enyl)methanone], the EC50 (read-out: EC50 value) is ≤ 50 nM.
In the case of `CC(C)(C)OC(=O)N1CCC(COc2ccc(C3=CCC(C(=O)NC4CCCC4)CC3)cc2)CC1` (centres unmarked) [Example 195, tert-butyl 4-((4-(4-(cyclopentylcarbamoyl)cyclohex-1-enyl)phenoxy)methyl)piperidine-1-carboxylate], the 50% effective concentration (EC50) was 28 nM under setting [1] and ≤ 50 nM (read-out: EC50 value).
As to `CCc1cnc(N2CCC(COc3ccc(C4=CCC(C(=O)N(C)OC)CC4)cc3)CC2)nc1` (centres unmarked) [Example 197, 4-(4-((1-(5-ethylpyrimidin-2-yl)piperidin-4-yl)methoxy)phenyl)-N-methoxy-N-methylcyclohex-3-enecarboxamide], the concentration giving a half-maximal response (EC50) by setting is: under setting [1], 18 nM; (read-out: EC50 value) ≤ 50 nM.
The like results for `CC(C)(C)OC(=O)N1CCC(COc2ccc(C3=CCC(C(=O)N4CCCC4)CC3)cc2)CC1` (centres unmarked) [Example 202, tert-butyl 4-((4-(4-(pyrrolidine-1-carbonyl)cyclohex-1-enyl)phenoxy)methyl)piperidine-1-carboxylate] were, in that order, 24 nM and ≤ 50 nM.
As to `CCN1CCN(C(=O)C2CC=C(c3ccc(OCC4CCN(C(=O)OC(C)(C)C)CC4)cc3)CC2)CC1` (centres unmarked) [Example 203, tert-butyl 4-((4-(4-(4-ethylpiperazine-1-carbonyl)cyclohex-1-enyl)phenoxy)methyl)piperidine-1-carboxylate], under setting [1], the EC50 amounted to 37 nM.
Turning to `CC(C)c1noc(N2CCC(COc3ccc(C4=CCC(C(=O)N5CCc6ccccc6C5C)CC4)cc3)CC2)n1` (centres unmarked) [Example 213, (4-(4-((1-(3-isopropyl-1,2,4-oxadiazol-5-yl)piperidin-4-yl)methoxy)phenyl)cyclohex-3-enyl)(1-methyl-3,4-dihydroisoquinolin-2(1H)-yl)methanone], the EC50 runs as follows: under setting [1], 24 nM; (read-out: EC50 value) ≤ 50 nM.
The like results for `CCc1cnc(N2CCC(COc3ccc(C4=CCC(C(=O)N5CCC(N6CCOCC6)CC5)CC4)cc3)CC2)nc1` (centres unmarked) [Example 220, (4-(4-((1-(5-ethylpyrimidin-2-yl)piperidin-4-yl)methoxy)phenyl)cyclohex-3-enyl)(4-morpholinopiperidin-1-yl)methanone] were, in that order, 40 nM and ≤ 50 nM.
The like results for `CON(C)C(=O)C1CC=C(c2ccc(OCC3CCN(C(=O)OC(C)(C)C)CC3)cc2)CC1` (centres unmarked) [Example 223, tert-butyl 4-((4-(4-(methoxy(methyl)carbamoyl)cyclohex-1-enyl)phenoxy)methyl)piperidine-1-carboxylate] were, in that order, 25 nM and ≤ 50 nM.
As for `CC(C)(C)OC(=O)N1CCC(COc2ccc(C3=CCC(C(=O)N4CC=CC4)CC3)cc2)CC1` (centres unmarked) [Example 224, tert-butyl 4-((4-(4-(2,5-dihydro-1H-pyrrole-1-carbonyl)cyclohex-1-enyl)phenoxy)methyl)piperidine-1-carboxylate], the EC50 is 38 nM under setting [1] and ≤ 50 nM (read-out: EC50 value).
Consider `CC(C)(C)OC(=O)N1CCC(COc2ccc(C3=CCC(C(=O)N4CCC(O)CC4)CC3)cc2)CC1` (centres unmarked) [Example 225, tert-butyl 4-((4-(4-(4-hydroxypiperidine-1-carbonyl)cyclohex-1-enyl)phenoxy)methyl)piperidine-1-carboxylate], for which the half-maximal effective concentration (EC50) runs as follows: under setting [1], 22 nM; (read-out: EC50 value) ≤ 50 nM.
The like results for `CC(C)(C)OC(=O)N1CCC(COc2ccc(C3=CCC(C(=O)N4CCC(CO)CC4)CC3)cc2)CC1` (centres unmarked) [Example 226, tert-butyl 4-((4-(4-(4-(hydroxymethyl)piperidine-1-carbonyl)cyclohex-1-enyl)phenoxy)methyl)piperidine-1-carboxylate] were, in that order, 14 nM and ≤ 50 nM.
Turning to `CCc1cnc(N2CCC(COc3ccc(C4=CCC(C(=O)N5CCC6(C=Cc7ccccc76)CC5)CC4)cc3)CC2)nc1` (centres unmarked) [Example 228, (4-(4-((1-(5-ethylpyrimidin-2-yl)piperidin-4-yl)methoxy)phenyl)cyclohex-3-enyl)(spiro[indene-1,4′-piperidin]-1′-yl)methanone], the EC50 was 8 nM under setting [1] and ≤ 50 nM (read-out: EC50 value).
`CCc1cnc(N2CCC(COc3ccc(C4=CCC(C(=O)N5CCC6(CC5)OCCO6)CC4)cc3)CC2)nc1` (centres unmarked) [Example 229, (4-(4-((1-(5-ethylpyrimidin-2-yl)piperidin-4-yl)methoxy)phenyl)cyclohex-3-enyl)(1,4-dioxa-8-azaspiro[4.5]decan-8-yl)methanone]: the concentration giving a half-maximal response (EC50) is, setting by setting: (EC50 (nM), 1 h at 37° C., six concentrations) 11 nM; (EC50 value) ≤ 50 nM.
Turning to `CCc1cnc(N2CCC(COc3ccc(C4=CCC(C(=O)N5CC=CC5)CC4)cc3)CC2)nc1` (centres unmarked) [Example 235, (2,5-dihydro-1H-pyrrol-1-yl)(4-(4-((1-(5-ethylpyrimidin-2-yl)piperidin-4-yl)methoxy)phenyl)cyclohex-3-enyl)methanone], under setting [1], the 50% effective concentration (EC50) is 24 nM.
Take `CN(CCO)C(=O)C1CC=C(c2ccc(OCC3CCN(C(=O)OC(C)(C)C)CC3)cc2)CC1` (centres unmarked) [Example 236, tert-butyl 4-((4-(4-((2-hydroxyethyl)(methyl)carbamoyl)cyclohex-1-enyl)phenoxy)methyl)piperidine-1-carboxylate]: the 50% effective concentration (EC50) reads like this: under setting [1], 14 nM; (read-out: EC50 value) ≤ 50 nM.
Take `CC(C)(C)OC(=O)N1CCC(COc2ccc(C3=CCC(C(=O)N4CCc5ccccc5C4)CC3)cc2)CC1` (centres unmarked) [Example 239, tert-butyl 4-((4-(4-(1,2,3,4-tetrahydroisoquinoline-2-carbonyl)cyclohex-1-enyl)phenoxy)methyl)piperidine-1-carboxylate]: under setting [1], the half-maximal effective concentration (EC50) stood at 22 nM.
Turning to `CCc1cnc(N2CCC(COc3ccc(C4=CCC(C(=O)N(C)CCCO)CC4)cc3)CC2)nc1` (centres unmarked) [Example 242, 4-(4-((1-(5-ethylpyrimidin-2-yl)piperidin-4-yl)methoxy)phenyl)-N-(3-hydroxypropyl)-N-methylcyclohex-3-enecarboxamide], the 50% effective concentration (EC50) is, setting by setting: under setting [1], 21 nM; (read-out: EC50 value) ≤ 50 nM.
The like results for `CC(C)c1noc(N2CCC(COc3ccc(C4=CCC(C(=O)N(C)CCCO)CC4)cc3)CC2)n1` (centres unmarked) [Example 243, N-(3-hydroxypropyl)-4-(4-((1-(3-isopropyl-1,2,4-oxadiazol-5-yl)piperidin-4-yl)methoxy)phenyl)-N-methylcyclohex-3-enecarboxamide] were, in that order, 30 nM and ≤ 50 nM.
The like results for `CON(C)C(=O)C1CC=C(c2ccc(OCC3CCN(c4nc(C(C)C)no4)CC3)cc2)CC1` (centres unmarked) [Example 247, 4-(4-((1-(3-isopropyl-1,2,4-oxadiazol-5-yl)piperidin-4-yl)methoxy)phenyl)-N-methoxy-N-methylcyclohex-3-enecarboxamide] were, in that order, 16 nM and ≤ 50 nM.
